Results on 29 molecules are retold here after patent US11225469B2, “Inhibitors of phosphoglycerate dehydrogenase (PHGDH) and uses thereof” (Whitehead Institute for Biomedical Research, priority 2015, dated 2022).

This experiment has as its target PHGDH (Homo sapiens (Human), UniProt O43175). Briefly: PHGDH inhibition, coupled assay with PSAT1/PSPH and diaphorase/resazurin readout. It is filed as biochemical. The following applies: Table E9; mixture with PSAT1, PSPH; diaphorase/resazurin reporter. (In general: Resazurin is reduced to fluorescent resorufin, in cell work by metabolically active cells.)

pIC50: −log10 of the molar value. Bounds are passed on as bounds.

Chain of PHGDH (O43175 whole entry): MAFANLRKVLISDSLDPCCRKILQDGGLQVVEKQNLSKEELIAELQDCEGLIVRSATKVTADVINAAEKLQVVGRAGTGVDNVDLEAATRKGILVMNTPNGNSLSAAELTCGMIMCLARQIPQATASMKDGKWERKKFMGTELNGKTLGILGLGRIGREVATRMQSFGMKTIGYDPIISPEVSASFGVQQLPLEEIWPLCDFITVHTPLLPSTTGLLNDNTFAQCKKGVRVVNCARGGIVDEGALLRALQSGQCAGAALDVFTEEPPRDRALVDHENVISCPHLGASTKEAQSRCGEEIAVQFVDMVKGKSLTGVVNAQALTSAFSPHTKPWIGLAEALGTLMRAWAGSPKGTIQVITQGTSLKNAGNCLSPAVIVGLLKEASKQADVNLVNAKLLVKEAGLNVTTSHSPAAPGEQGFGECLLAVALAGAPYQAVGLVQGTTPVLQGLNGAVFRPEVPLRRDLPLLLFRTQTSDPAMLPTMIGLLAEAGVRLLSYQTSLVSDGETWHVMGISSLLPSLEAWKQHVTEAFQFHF

A word on the pIC50: it is the negative decadic logarithm of the IC50, by convention in mol/L. Consider `Cc1cc(C)nc(NC(=S)N2CCC(NC(=O)c3cccc(C(F)(F)F)c3)CC2)c1` [Compound 263], for which the pIC50 is over 5.30.

Consider `Cc1cc(C)nc(NC(=S)N2CCCC(NC(=O)c3ccc(C(F)(F)F)cc3)C2)c1` (centres unmarked) [Compound 264, N-(1-((4,6-dimethylpyridin-2-yl)carbamothioyl)piperidin-3-yl)-4-(trifluoromethyl)benzamide], for which the pIC50 is over 5.30.

On to `Cc1cc(C)nc(NC(=S)N2CCN(C(=O)c3ccc(C(F)(F)F)cc3)CC2)c1` [Compound 265], for which the pIC50 was over 5.30.

Turning to `Cc1cc(C)nc(NC(=S)N2CCC(NC(=O)c3ccc(C(F)(F)F)cc3)CC2)c1` [Compound 266], the pIC50 is over 5.30.

As for `Cc1cc(C)nc(NC(=S)N2CCN(CC(C)(C)C)CC2)c1` [Compound 269], the negative logarithm of the IC50 (pIC50) was over 5.30.

For the molecule `Cc1cc(C)nc(NC(=S)N2CCC(CN3CCOCC3)CC2)c1` [Compound 270], the pIC50 is at most 4.70.

As for `Cc1cc(C)nc(NC(=S)N2CCC(CN3CCCCC3)CC2)c1` [Compound 271], the negative logarithm of the IC50 (pIC50) is at most 4.70.

With `Cc1cc(C)nc(NC(=S)N2CCN(Cc3ccc(C(F)(F)F)cc3)C(c3ccccc3)C2)c1` (centres unmarked) [Compound 273], the pIC50 was 4.70 to 5.00.

As for `Cc1cc(C)nc(NC(=S)N2CCN(Cc3ccccc3)CC2)c1` [Compound 274], the negative-log IC50 (pIC50) is 4.70 to 5.00.

In the case of `Cc1cc(C)nc(NC(=S)N2CCN(Cc3ccc(C(F)(F)F)cc3)C(C)C2)c1` (centres unmarked) [Compound 275], the negative logarithm of the IC50 (pIC50) was over 5.30.

Turning to `Cc1cc(C)nc(NC(=S)N2CCN(Cc3ccccc3C)CC2)c1` [Compound 276], the pIC50 is at most 4.70.

On to `Cc1cc(C)nc(NC(=S)N2CCN(Cc3cccc(F)c3)CC2)c1` [Compound 277], for which the pIC50 is 4.70 to 5.00.

Regarding `Cc1cc(C)nc(NC(=S)N2CCN(Cc3ccccc3C(F)(F)F)CC2)c1` [Compound 278], the pIC50 was 4.70 to 5.00.

For the molecule `Cc1cc(C)nc(NC(=S)N2CCN(Cc3ccc(F)cc3)CC2)c1` [Compound 279], the pIC50 was 4.70 to 5.00.

Take `Cc1cc(C)nc(NC(=S)N2CCN(Cc3ccc(Cl)cc3)CC2)c1` [Compound 280]: the pIC50 is 4.70 to 5.00.

For `Cc1cc(C)nc(NC(=S)N2CCN(Cc3ccc(Br)cc3)CC2)c1` [Compound 281], the pIC50 was 4.70 to 5.00.

As to `Cc1cc(C)nc(NC(=S)N2CCN(Cc3cccc(Br)c3)CC2)c1` [Compound 282], the pIC50 is 4.70 to 5.00.

For the molecule `Cc1cc(C)nc(NC(=S)N2CCN(Cc3cccnc3)CC2)c1` [Compound 283], the pIC50 is at most 4.70.

Turning to `Cc1cc(C)nc(NC(=S)N2CCN(Cc3cccc(Cl)c3)CC2)c1` [Compound 284], the pIC50 is 4.70 to 5.00.

Regarding `Cc1cc(C)nc(NC(=S)N2CCN(Cc3ccccc3Br)CC2)c1` [Compound 285], the pIC50 is 4.70 to 5.00.

Consider `COc1ccccc1CN1CCN(C(=S)Nc2cc(C)cc(C)n2)CC1` [Compound 286], for which the pIC50 was 4.70 to 5.00.

On to `Cc1cc(C)nc(NC(=S)N2CCN(Cc3ccccn3)CC2)c1` [Compound 287, N-(4,6-dimethylpyridin-2-yl)-4-(pyridin-2-ylmethyl)piperazine-1-carbothioamide], for which the pIC50 is at most 4.70.

In the case of `Cc1cc(C)nc(NC(=S)N2CCN(Cc3ccccc3F)CC2)c1` [Compound 288], the pIC50 is 4.70 to 5.00.

On to `Cc1cc(C)nc(NC(=S)N2CCN(Cc3ccccc3Cl)CC2)c1` [Compound 289], for which the pIC50 is 4.70 to 5.00.

Turning to `COc1cccc(CN2CCN(C(=S)Nc3cc(C)cc(C)n3)CC2)c1` [Compound 290], the pIC50 was 4.70 to 5.00.

Consider `Cc1cccc(CN2CCN(C(=S)Nc3cc(C)cc(C)n3)CC2)c1` [Compound 291], for which the pIC50 was over 5.30.

As to `Cc1ccc(CN2CCN(C(=S)Nc3cc(C)cc(C)n3)CC2)cc1` [Compound 292], the pIC50 is over 5.30.

As to `COc1ccc(CN2CCN(C(=S)Nc3cc(C)cc(C)n3)CC2)cc1` [Compound 293], the negative-log IC50 (pIC50) was 4.70 to 5.00.

With `Cc1cc(C)nc(NC(=S)N2CCN(Cc3ccc(C(F)(F)F)cc3)C(CO)C2)c1` (centres unmarked) [Compound 294], the pIC50 is 4.70 to 5.00.
